Experimental data: patent publication US20170065670A1, “METHODS FOR TREATING IMMUNE MEDIATED NEUROLOGICAL DISEASES” (Trinity Therapeutics, Inc., priority 2005, published 2017)
Each block holds one molecule with its values, some of them ahead of it.

What was measured:
human C1q = experiment: Reverse ELISA: inhibition of PAP immune complex binding to C1q coated plates; settings: summary of Table 1
From the text: (§1) For this reason, a “reverse ELISA” technique was used to assess binding of the Fc region to ligands that bind to immune complexed IgG Fc. In these assays, the enzyme (HRP) was not covalently conjugated to the Fc portion of the secondary antibody. Rather, a preformed immune complex of peroxidase-rabbit (or mouse) anti-peroxidase IgG (“PAP” complex) was used. […] In the reverse ELISA system, an Fc CH2-CH3 cleft binding ligand (e.g., purified human C1q) was bound to microwell plates. In the absence of competitor, PAP complexes bound to the immobilized ligand and the reaction between HRP and its substrate produced a signal. This signal was reduced by polypeptides and compounds, such as those provided herein, that inhibited PAP binding to the immobilized ligand.
PAP complexes were formed by mixing 2 μl of rabbit anti-peroxidase (Sigma Chemicals, St. Louis, Mo.) with 50 μl of peroxidase (Sigma-Aldrich, St. Louis, Mo.) in 1 ml distilled water. PAP (100 μl) were pre-incubated with 100 μl of peptide or human C1q (Quidel Corp., San Diego, Calif.) for one hour. The C1q/PAP and peptide/PAP mixtures (100 μl) were then incubated with C1q coated plates for 30 minutes. After washing, plates were incubated with 2-2′-azinobis-3-ethylbenzthiazoline-6-sulfonate (ATBS; Quidel Corp.) for 15 minutes and read at 405 nm.

[1] = tested on: human wt tau protein (441 residues); experiment: Reverse ELISA: inhibition of immune complexed IgG (PAP) binding to wt tau
From the text: as §1
PAP complexes were formed by mixing 2 μl of rabbit anti-peroxidase with 50 μl of peroxidase in 1 ml distilled water. PAP (100 μl) were pre-incubated with 100 μl of peptide for one hour. Control PAP (200 μl) also was incubated for one hour. 100 μl of either PAP or PAP/peptide was added to Falcon microtiter plates that had been coated for 24 hours with 16.7 μg/ml human wt tau protein (441 residues; Sigma-Aldrich). The PAP or peptide/PAP mixtures (100 μl) were added after one hour to tau coated plates and incubated for 60 minutes. After washing, plates were incubated with ATBS for 15 minutes, and read at 405 nm.

[2] = tested on: apo (non Cu, Zn containing) monomeric mutant SOD1 C57S (mSOD1C57S); experiment: Reverse ELISA: inhibition of immune complexed IgG (PAP) binding to mutant SOD1; settings: for mSOD1C57S (read at 405 nm): plates coated 24 h with mSOD1C57S, PAP/peptide 60 min, lower = more inhibition, positive control […]; for inhibition of mSOD1C57S binding to PAP (in words): summary of Table 3
From the text: as §1
(§2) PAP complexes were formed as described in Example 2. PAP (100 μl) were pre-incubated with 100 μl of peptide for one hour, and control (200 μl of PAP) also was incubated for one hour. 100 μl of either PAP or PAP/peptide was added to Falcon microtiter plates that had been coated for 24 hours with either 0.8 μg/ml human wtSOD1 (Sigma-Aldrich) or apo (non Cu, Zn containing) monomeric mutant SOD1 C57S (mSOD1C57S). The PAP or peptide/PAP mixtures (100 μl) were added after one hour to either wt SOD1 or mSOD1C57S coated plates for 60 minutes. After washing, plates were incubated with ATBS for 15 minutes and read at 405 nm.

human wt α-synuclein = experiment: Reverse ELISA: inhibition of immune complexed IgG (PAP) binding to wt α-synuclein
From the text: as §1
PAP complexes were formed mixing 2 μl of rabbit anti-peroxidase (Sigma) with 50 μl of peroxidase (Sigma) in 1 ml distilled water. PAP (100 μl) were pre-incubated with 100 μl of peptide for one hour. Control PAP (200 μl) also was incubated for one hour. 100 μl of either PAP or PAP/peptide was added to Falcon microtiter plates that had been coated for 24 or 48 hours with 167 μg/ml human wt α-synuclein (Sigma-Aldrich), and the plates were incubated for 60 minutes. After washing, plates were incubated with ATBS for 30 minutes and then read at 405 nm.

human wtSOD1 = experiment: Reverse ELISA: inhibition of immune complexed IgG (PAP) binding to wt SOD1; settings: for wt SOD1 (read at 405 nm): plates coated 24 h with 0.8 μg/ml human wtSOD1, PAP/peptide 60 min, lower = more inhibition, positive control 2.900; for inhibition of wt SOD1 binding to PAP (in words): summary of Table 3
From the text: as §1, §2

FcγIIa = experiment: Reverse ELISA: inhibition of PAP immune complex binding to FcγIIa coated plates; settings: summary of Table 2, FcR overall (FcγIIa, FcγIIb, FcγIII)
From the text: as §1
Once the reverse ELISA protocol was established using the C1q assay, the assay was redesigned using FcγIIa, FcγIIb and FcγIII in place of C1q. Highly purified FcγIIa, FcγIIb and FcγIII were immunoadsorbed onto plastic microwells. […]
Falcon microtiter plates were coated with 1:10 dilutions of highly purified FcγIIa, FcγIIb and FcγIII and incubated for 24 hours. […] After washing, plates were incubated with ABTS substrate for 15 minutes and read at 405 nm.

[3] = tested on: human wt β amyloid peptide 1-40; experiment: Reverse ELISA: inhibition of immune complexed IgG (PAP) binding to wt β-amyloid peptide 1-40; settings: summary of Table 7
From the text: as §1
Different fragments of the Aβ peptide contribute to the amyloid plaques pathognomic for AD, and these Aβ fragments appear to stimulate microglial activation and subsequent AD neuropathology. Thus, experiments were conducted to test Aβ 1-40 for binding to immune complexes, and to determine whether the inhibitors described herein can inhibit binding of PAP immune complexes to Aβ peptide. PAP complexes were prepared by mixing 2 μl of rabbit anti-peroxidase with 50 μl of peroxidase in 1 ml distilled water. […] After washing, plates were incubated with ATBS for 15 minutes and read at 405 nm.

[4] = molecular target: Human wt α-synuclein (Sigma-Aldrich) (human) (UniProt P37840); experiment: reverse ELISA: PAP without peptide on α-synuclein-coated plate (24 h coating)
Highly purified FcγIIa = Highly purified FcγIIa (UniProt P12318); experiment: reverse ELISA: PAP without peptide on FcγIIa-coated plate
Highly purified FcγIIa, sequence (P12318 34-217 limits assumed): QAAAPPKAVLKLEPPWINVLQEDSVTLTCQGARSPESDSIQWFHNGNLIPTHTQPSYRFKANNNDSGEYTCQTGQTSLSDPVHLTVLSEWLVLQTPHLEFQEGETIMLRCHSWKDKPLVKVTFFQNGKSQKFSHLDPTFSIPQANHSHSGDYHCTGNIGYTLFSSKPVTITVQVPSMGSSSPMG

[5] = molecular target: Preformed immune complex of peroxidase-rabbit anti-peroxidase IgG (PAP complex) (horseradish) (UniProt P00433); experiment: reverse ELISA competition: peptide pre-incubated with PAP; competitor: immobilised human wt SOD1
Preformed immune complex of peroxidase-rabbit anti-peroxidase IgG (PAP complex) (horseradish), sequence (P00433 31-338, one chain of several): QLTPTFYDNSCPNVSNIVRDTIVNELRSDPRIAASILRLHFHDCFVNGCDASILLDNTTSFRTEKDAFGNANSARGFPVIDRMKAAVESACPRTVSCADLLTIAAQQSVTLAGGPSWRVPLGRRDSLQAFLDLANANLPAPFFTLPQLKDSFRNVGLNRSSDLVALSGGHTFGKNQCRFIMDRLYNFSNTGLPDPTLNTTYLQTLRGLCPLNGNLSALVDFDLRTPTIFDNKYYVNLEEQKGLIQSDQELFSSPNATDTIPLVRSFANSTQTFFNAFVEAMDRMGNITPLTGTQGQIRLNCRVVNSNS

[6] = molecular target: Preformed immune complex of peroxidase-rabbit anti-peroxidase IgG (PAP complex) (horseradish) (UniProt P00433); experiment: reverse ELISA competition: peptide pre-incubated with PAP; competitor: immobilised human wt α-synuclein, plate coated 24 h
[7] = molecular target: Preformed immune complex of peroxidase-rabbit anti-peroxidase IgG (PAP complex) (horseradish) (UniProt P00433); experiment: reverse ELISA competition: peptide pre-incubated with PAP; competitor: immobilised mSOD1C57S
[8] = molecular target: Preformed immune complex of peroxidase-rabbit anti-peroxidase IgG (PAP complex) (horseradish) (UniProt P00433); experiment: reverse ELISA competition: peptide pre-incubated with PAP; competitor: immobilised human wt α-synuclein, plate coated 48 h

Preformed immune complex of peroxidase-rabbit anti-peroxidase IgG (PAP complex), sequence (P00433 31-338, one chain of several): as above

Molecule: APPCARHLGELVWCT
inhibition of C1q binding (rank in words) (human C1q): next best result

Molecule: APPDCAWHLGELVWCT
Wt tau protein (read at 405 nm) ([1]; plates coated 24 h with 16.7 μg/ml tau, lower = more inhibition, positive control 0.695, substrate only 0.060): 0.059 | inhibition of human wt tau protein binding to PAP (rank in words) ([1]; summary of Table 6): greatest inhibition | mSOD1C57S (read at 405 nm) [2]: 0.226 | inhibition of mSOD1C57S binding to PAP (in words) [2]: greatest inhibition | inhibition of mSOD1C57S binding to PAP (in words) ([2]; listed as peptide 16): best inhibition | Wt α-synuclein (read at 405 nm) (human wt α-synuclein; plates coated 24 h with 167 μg/ml α-synuclein, lower = more inhibition, positive control 1.433, substrate only 0.061): 0.088 | inhibition of α-synuclein binding to PAP (rank in words) (human wt α-synuclein; summary of Table 5): greatest inhibition | wt SOD1 (read at 405 nm) (human wtSOD1): 0.277 | inhibition of wt SOD1 binding to PAP (in words) (human wtSOD1): greatest inhibition | inhibition of wt SOD1 binding to PAP (in words) (human wtSOD1; listed as peptide 16): best inhibition | inhibition of C1q binding (rank in words) (human C1q): greatest inhibition | inhibition of FcR binding to PAP (rank in words) (FcγIIa): greatest inhibition

Molecule: DCAWHLGELVWCT
mSOD1C57S (read at 405 nm) [2]: 0.592 | inhibition of mSOD1C57S binding to PAP (in words) ([2]; listed as peptide 2): inhibited | wt SOD1 (read at 405 nm) (human wtSOD1): 0.292 | inhibition of wt SOD1 binding to PAP (in words) (human wtSOD1; listed as peptide 2): inhibited | inhibition of human wt β amyloid peptide binding to PAP (rank in words) [3]: greatest inhibition

OD 405 nm [4]: 1.43 OD | OD 405 nm (Highly purified FcγIIa): 1.6 OD
Molecule: Preformed immune complex of peroxidase-rabbit anti-peroxidase IgG (PAP complex) (from UniProt P00433 31-338)

OD 405 nm [5]: 0.277 OD | OD 405 nm [6]: 0.088 OD | OD 405 nm [7]: 0.226 OD | OD 405 nm [8]: 0.136 OD
Molecule: APPDCAWHLGELVWCT [Peptide … (SEQ ID NO:16)]
